Data published in patent publication US11512053B2, “Arginine methyltransferase inhibitors and uses thereof” (priority 2013, dated 2022).
Like-named read-outs stand apart in the source and are kept apart here.

Legend:
[1] = molecular target: full-length human PRMT1 isoform 1 (GST-tagged) (Homo sapiens, UniProt Q99873); test: PRMT1 Biochemical Assay (3H-SAM Flashplate, peptide substrate)
Excerpt: General Materials. S-adenosylmethionine (SAM), S-adenosylhomocysteine (SAH), bicine, Tween20, dimethylsulfoxide (DMSO), bovine skin gelatin (BSG), and Tris(2-carboxyethyl)phosphine hydrochloride solution (TCEP) were purchased from Sigma-Aldrich at the highest level of purity possible. ^3H-SAM was purchase from American Radiolabeled Chemicals with a specific activity of 80 Ci/mmol. 384-well streptavidin Flashplates were purchased from PerkinElmer.
Protein Expression. Recombinant baculovirus were generated according to Bac-to-Bac kit instructions (Life Technologies). […] Infections were carried out at 27° C. for 48 hours, harvested by centrifugation, and stored at −80° C. for purification.
Protein Purification. […] GST-tagged PRMT1 was eluted with 50 mM Tris, 2 mM glutathione, pH 7.8, dialysed in buffer A and concentrated to 1 mg/mL.
General Procedure for PRMT1 Enzyme Assays on Peptide Substrates. The assays were all performed in a buffer consisting of 20 mM Bicine (pH=7.6), 1 mM TCEP, 0.005% BSG, and 0.002% Tween 20, prepared on the day of use. […] DMSO (1 ul) was added to Columns 11, 12, 23, 24, rows A-H for the maximum signal control and 1 ul of SAH, a known product and inhibitor of PRMT1, was added to columns 11, 12, 23, 24, rows I-P for the minimum signal control. A cocktail (40 ul) containing the PRMT1 enzyme was added by Multidrop Combi (Thermo-Fisher). The compounds were allowed to incubate with PRMT1 for 30 min at room temperature, then a cocktail (10 ul) containing SAM and peptide was added to initiate the reaction (final volume=51 ul). […] The assays were stopped by the addition of non-radiolabeled SAM (10 ul) to a final concentration of 300 uM, which dilutes the ^3H-SAM to a level where its incorporation into the peptide substrate is no longer detectable. 50 ul of the reaction in the 384-well polypropylene plate was then transferred to a 384-well Flashplate and the biotinylated peptides were allowed to bind to the streptavidin surface for at least 1 hour before being washed once with 0.1% Tween20 in a Biotek ELx405 plate washer. The plates were then read in a PerkinElmer TopCount plate reader to measure the quantity of ^3H-labeled peptide bound to the Flashplate surface, measured as disintegrations per minute (dpm) or alternatively, referred to as counts per minute (cpm).
Where dpm=disintegrations per minute, cmpd=signal in assay well, and min and max are the respective minimum and maximum signal controls.
Where top and bottom are the normally allowed to float, but may be fixed at 100 or 0 respectively in a 3-parameter fit. The Hill Coefficient normally allowed to float but may also be fixed at 1 in a 3-parameter fit. Y is the % inhibition and X is the compound concentration.

[2] = test system: mono-methyl arginine in RKO cells; test: RKO Methylation Assay, In Cell Western (ICW) for detection of mono-methyl arginine and DNA content; format: cell-based; details: Homo sapiens, RKO, 72 h, RKO cells, read-out: In Cell Western EC30
Excerpt: RKO adherent cells were purchased from ATCC (American Type Culture Collection), Manassas, Va., USA. DMEM/Glutamax medium, penicillin-streptomycin, heat inactivated fetal bovine serum, 0.05% trypsin and D-PBS were purchased from Life Technologies, Grand Island, N.Y., USA. Odyssey blocking buffer, 800 CW goat anti-rabbit IgG (H+L) antibody, and Licor Odyssey infrared scanner were purchased from Licor Biosciences, Lincoln, Nebr., USA. Mono-methyl arginine antibody was purchased from Cell Signaling Technology, Danvers, Mass., USA. Methanol was purchased from VWR, Franklin, Mass., USA. 10% Tween 20 was purchased from KPL, Inc., Gaithersburg, Md., USA. DRAQ5 was purchased from Biostatus Limited, Leicestershire, UK.
RKO adherent cells were maintained in growth medium (DMEM/Glutamax medium supplemented with 10% v/v heat inactivated fetal bovine serum and 100 units/mL penicillin-streptomycin) and cultured at 37° C. under 5% CO2.
Cell treatment, In Cell Western (ICW) for detection of mono-methyl arginine and DNA content. […] Compound (100 nL) from a 96-well source plate was added directly to 384 well cell plate. Plates were incubated at 37° C., 5% CO2 for 72 hours. After three days of incubation, plates were brought to room temperature outside of the incubator for ten minutes and blotted on paper towels to remove cell media. 50 μL of ice cold 100% methanol was added directly to each well and incubated for 30 min at room temperature. After 30 min, plates were transferred to a Biotek EL406 plate washer and washed 2 times with 100 μL per well of wash buffer (1×PBS). Next 60 μL per well of Odyssey blocking buffer (Odyssey Buffer with 0.1% Tween 20 (v/v)) were added to each plate and incubated 1 hour at room temperature. Blocking buffer was removed and 20 μL per well of primary antibody was added (mono-methyl arginine diluted 1:200 in Odyssey buffer with 0.1% Tween 20 (v/v)) and plates were incubated overnight (16 hours) at 4° C. Plates were washed 5 times with 100 μL per well of wash buffer. […] The plates were washed 5 times with 100 μL per well wash buffer then 2 times with 100 μL per well of water. Plates were allowed to dry at room temperature then imaged on the Licor Odyssey machine which measures integrated intensity at 700 nm and 800 nm wavelengths. Both 700 and 800 channels were scanned.
Calculations: First, the ratio for each well was determined by:
Each plate included fourteen control wells of DMSO only treatment (minimum activation) as well as fourteen control wells for maximum activation treated with 20 μM of a reference compound. The average of the ratio values for each control type was calculated and used to determine the percent activation for each test well in the plate. Reference compound was serially diluted three-fold in DMSO for a total of nine test concentrations, beginning at 20 μM. Percent activation was determined and EC30 curves were generated using triplicate wells per concentration of compound.

[3] = single experiment or average of multiple experiments
[4] = 72 hours compound incubation, mono-methyl arginine signal normalised to DNA content (DRAQ5), percent activation vs 20 μM reference compound
[5] = 72 hours incubation, mono-methyl arginine signal normalised to DNA content, single experiment or average of multiple experiments

full-length human PRMT1 isoform 1 (GST-tagged), sequence (Q99873 with tags, fused parts or gaps): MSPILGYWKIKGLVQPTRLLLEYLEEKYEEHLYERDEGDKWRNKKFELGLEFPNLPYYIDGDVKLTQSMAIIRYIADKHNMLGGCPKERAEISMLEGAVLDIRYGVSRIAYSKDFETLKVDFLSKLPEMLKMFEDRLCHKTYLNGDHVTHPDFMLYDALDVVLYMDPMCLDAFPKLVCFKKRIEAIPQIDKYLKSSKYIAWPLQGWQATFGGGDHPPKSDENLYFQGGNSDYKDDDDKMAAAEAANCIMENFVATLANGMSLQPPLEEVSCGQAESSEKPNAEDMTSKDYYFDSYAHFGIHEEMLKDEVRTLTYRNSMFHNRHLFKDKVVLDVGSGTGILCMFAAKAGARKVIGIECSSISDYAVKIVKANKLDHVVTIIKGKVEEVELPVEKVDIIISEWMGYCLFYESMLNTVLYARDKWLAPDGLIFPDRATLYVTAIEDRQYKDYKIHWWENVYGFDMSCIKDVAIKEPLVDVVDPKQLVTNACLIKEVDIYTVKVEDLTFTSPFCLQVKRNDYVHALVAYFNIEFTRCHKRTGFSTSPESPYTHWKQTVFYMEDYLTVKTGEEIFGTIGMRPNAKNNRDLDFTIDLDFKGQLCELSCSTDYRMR

Row | Compound | IC50 [1] | IC50 [1, 3] | EC30 [2, 4] | EC30 [2, 5]
1 | CNCCN(C)Cc1c[nH]nc1[C@H]1CC[C@H](O)C2(CCCCC2)C1 (racemic) [Compound 184, (1S,4S)-4-[4-({methyl[2-(methylamino)ethyl]amino}methyl)-1H-pyrazol-3-yl] spiro[5.5]undecan-1-ol] | < 100 nM | 19.8 nM | < 3000 nM | 458 nM
2 | CNCCN(C)Cc1c[nH]nc1[C@H]1CC[C@@H](O)C2(CCCCC2)C1 (single isomer, unassigned) [Compound 183] | < 100 nM | 13.5 nM | < 3000 nM | 319 nM
3 | CN(CCN)Cc1c[nH]nc1CCc1ccccc1 [Compound 9] | < 100 nM | 10 nM | 3010 to 12000 nM | 5610 nM
4 | CNCCN(C)Cc1c[nH]nc1[C@H]1CC[C@]2(CCC(C)(C)O2)CC1 [Compound 104] | < 100 nM | 8.04 nM | < 3000 nM | 11.7 nM
5 | CNCCN(C)Cc1c[nH]nc1[C@H]1CC[C@@]2(CCOC2(C)C)CC1 [Compound 106, Methyl [2-(methylamino)ethyl]([3-[(5R,8R)-1,1-dimethyl-2-oxaspiro[4.5]decan-8-yl]-1H-pyrazol-4-yl]methyl)amine] | < 100 nM | 9.5 nM | < 3000 nM | 22.7 nM
6 | CNCCN(C)Cc1c[nH]nc1[C@H]1CC[C@@H](N(CC2CCOCC2)C(=O)CC(C)C)CC1 [Compound 107] | < 100 nM | 21.2 nM |  | 
7 | CCC(=O)N(CC1CCOCC1)[C@H]1CC[C@@H](c2n[nH]cc2CN(C)CCNC)CC1 [Compound 108] | < 100 nM | 61 nM | 3010 to 12000 nM | 8550 nM
8 | CCC(=O)N(CC1CCOCC1)[C@H]1CC[C@H](c2n[nH]cc2CN(C)CCNC)CC1 [Compound 109] | < 100 nM | 26.7 nM | < 3000 nM | 2480 nM
9 | CNCCN(C)Cc1c[nH]nc1C1CCC(=O)N(CCc2ccccc2)C1 (centres unmarked) [Compound 110] | < 100 nM | 13.1 nM | < 3000 nM | 2550 nM
10 | CNCCN(C)Cc1c[nH]nc1[C@H]1CC[C@]2(CCN(Cc3ccc(OCCOC)cc3)C2=O)CC1 [Compound 111] | < 100 nM | 22.4 nM | < 3000 nM | 913 nM
11 | CNCCN(C)Cc1c[nH]nc1C1CCCC(COCCOC)C1 (centres unmarked) [Compound 112] | < 100 nM | 18.9 nM |  | 
12 | CNCCN(C)Cc1c[nH]nc1C1CCCC(COCCC(O)CO)C1 (centres unmarked) [Compound 113] | < 100 nM | 57.2 nM | 3010 to 12000 nM | 7350 nM
13 | CNCCN(C)Cc1c[nH]nc1C1CCC(N(CC(C)C)C(=O)CC2CCOCC2)CC1 (centres unmarked) [Compound 114] | 101 to 1000 nM | 101 nM |  | 
14 | CNCCN(C)Cc1c[nH]nc1C1CCC(=O)N(Cc2ccccc2)C1 (centres unmarked) [Compound 115] | < 100 nM | 88.7 nM | < 3000 nM | 18.9 nM
15 | CNCCN(C)Cc1c[nH]nc1[C@H]1CC[C@H](OCCOc2ccc(OCCOC)cc2)CC1 [Compound 116] | < 100 nM | 9.8 nM | 3010 to 12000 nM | 8900 nM
16 | CNCCN(C)Cc1c[nH]nc1C1CCC(=O)N(CCC(C)C)C1 (centres unmarked) [Compound 117] | < 100 nM | 38.6 nM |  | 

Row | Compound | IC50 [1] | IC50 [1, 3] | EC30 [2, 4] | EC30 [2, 5]
17 | CNCCN(C)Cc1c[nH]nc1C1CC(OC(C)C)CC(OC(C)C)C1 (centres unmarked) [Compound 118] | 1010 to 3000 nM | 2160 nM | 3010 to 12000 nM | 9570 nM
18 | CCOCC1CC(COCC)CC(c2n[nH]cc2CN(C)CCNC)C1 (centres unmarked) [Compound 119] | 101 to 1000 nM | 124 nM | < 3000 nM | 77.3 nM
19 | CNCCN(C)Cc1c[nH]nc1[C@H]1CC[C@@]2(CCN(Cc3ccc(OCCOC)cc3)C2=O)CC1 [Compound 120] | < 100 nM | 10.1 nM | < 3000 nM | 9.8 nM
20 | CNCCN(C)Cc1c[nH]nc1C1CCC2(CC1)OC(C)CC(C)O2 (centres unmarked) [Compound 121] | < 100 nM | 15.2 nM |  | 
21 | CNCCN(C)Cc1c[nH]nc1C1CC(OCC(C)C)CC(OCC(C)C)C1 (centres unmarked) [Compound 122] | 101 to 1000 nM | 421 nM |  | 346 nM
22 | CNCCN(C)Cc1c[nH]nc1[C@H]1CC[C@]2(CCN(Cc3ccc(F)cc3)C2=O)CC1 [Compound 123] | < 100 nM | 8.8 nM | < 3000 nM | 44 nM
23 | CNCCN(C)Cc1c[nH]nc1[C@H]1CC[C@]2(CCN(CC(C)C)C2=O)CC1 [Compound 124] | < 100 nM | 6.4 nM | < 3000 nM | 21.4 nM
24 | CNCCN(C)Cc1c[nH]nc1[C@H]1CC[C@@]2(CCN(Cc3ccc(F)cc3)C2=O)CC1 [Compound 125] | < 100 nM | 5.3 nM | < 3000 nM | 87.6 nM
25 | CNCCN(C)Cc1c[nH]nc1[C@H]1CC[C@@]2(CCN(Cc3cc(F)cc(F)c3)C2=O)CC1 [Compound 126] | < 100 nM | 4 nM | < 3000 nM | 638 nM
26 | CNCCN(C)Cc1c[nH]nc1[C@H]1CC[C@@]2(CCN(Cc3ccccc3)C2=O)CC1 [Compound 127] | < 100 nM | 16.5 nM | < 3000 nM | 29.2 nM
27 | CNCCN(C)Cc1c[nH]nc1[C@H]1CC[C@]2(CCN(Cc3ccccc3)C2=O)CC1 [Compound 128] | < 100 nM | 5.2 nM | < 3000 nM | 1080 nM
28 | CNCCN(C)Cc1c[nH]nc1C1CCC2(CC1)CCC(F)(F)CC2 [Compound 130] | < 100 nM | 3.4 nM |  | 
29 | CCCOC1CC(OCCC)CC(c2n[nH]cc2CN(C)CCNC)C1 (centres unmarked) [Compound 131] | 101 to 1000 nM | 270 nM |  | 
30 | CNCCN(C)Cc1c[nH]nc1C1CC(COC)CC(COC)C1 (centres unmarked) [Compound 138] | 101 to 1000 nM | 349 nM |  | 
31 | CNCCN(C)Cc1c[nH]nc1C1CCC2(CC1)NC(=O)N(C)C2=O (centres unmarked) [Compound 170] | < 100 nM | 21 nM |  | 
32 | CNCCN(C)Cc1c[nH]nc1[C@H]1CC[C@H](OCCOc2ccc(OC)cc2)CC1 [Compound 186] | 101 to 1000 nM | 110 nM |  | 
